Experimental data from PMC6330446, “An integrated characterization of contractile, electrophysiological, and structural cardiotoxicity of Sophora tonkinensis Gapnep. in human pluripotent stem cell-derived cardiomyocytes” (Stem Cell Research & Therapy, 2019).
Entries after “also recorded” stand apart in the source; their conditions may differ. Like-named read-outs stand apart in the source and are kept apart here.

How the values were obtained:
hiPSC-CMs [1] = assay: Cardio-NLCS impedance and extracellular field potential (EFP) recording; format: cell-based, human; conditions: for Base impedance vs the control group (in words) / Contractile amplitude (amplitude of IMP) vs the control group (in words) / FPD value vs the control group (in words) / Potential amplitude (amplitude of EFP) vs the control group (in words) / Beat rate vs the control group (in words): 2, 10, 50 μM, 24 h recording
Experimental: (§1) After plating for about 3 days, CMs matured and began to beat. At this time, different compounds were added, and experiments were performed 24 h after treatment. The experiments were grouped as follows: control group (normal medium); matrine, oxymatrine, sophocarpine, and cytisine treatment (2, 10, 50 μM) groups; and aconitine treatment (1 μM) group. The doses of toxicity studies above were determined by the effective therapeutic doses reported and included or exceeded the therapeutic dose.
Cardio-NLCS (Optoprobe Science LTD, Canada) is a turn-key system for efficient impedance and extracellular field potential (EFP) measurements of cell monolayers or tissue preparations. NSP-96 dedicated for Cardio-NLCS should be coated with BD and the wells should not run dry before adding the cell suspension. After seeding, the medium was not exchanged for 12 h. Subsequently, the medium exchange was completed once a day for 2–3 days and every 2 days thereafter. Adding compounds required a complete solution exchange to allow for exact dosing. After the cells were allowed to re-equilibrate for 2–3 h, the 2× concentrated compounds were added by exchanging half of the medium per well. In this experiment, several indexes (base impedance, amplitude, beat rate, and FPD) were recorded at the start of the experiment (control), then every 5 min for 4 h after compound application and every 30 min the same as cell growth period detection, lasting a minimum of 24 h. In this way, both time and concentration-dependent effects could be monitored. Impedance and EFP data analyses were taken every 4 h after compound administrations.

GCaMP hESC-CMs = format: cell-based, human; conditions: human
Experimental: The hESC-CMs in this experiment can express the GCaMP reporter gene by gene editing, and green fluorescence marker can be observed by a fluorescence microscope. The fluorescence intensity is proportional to Ca^2+ concentration. The CMs were seeded into 96-well plates at 5000/well and were administered the same as above. The fluorescence intensities of hESC-CMs were monitored using an IncuCyte™ S3 ZOOM cell imaging system (Essen BioScience, Ann Arbor, MI). Data were presented as the mean ± SEM, n ≥ 3.

hiPSC-CMs [2] = conditions: for Cell viability (in words): alkaloids 2, 10, 50 μM, aconitine 1 μM
Experimental: as §1
CMs were incubated in 10% CCK-8 (Dojindo, Kumamoto, Japan) that was diluted in normal culture medium at 37 °C until a visual color conversion occurred. The absorbance of each well was measured using a microplate reader (Spectrafluor, TECAN, Sunrise, Austria) at 450 nm. Three individual experiments were performed. All samples were operated in duplicate.
A 96-well plate was used to seed hiPSC-CMs at a concentration of 5 × 10^4 cells per well. The cultured cells were treated with different concentrations of compounds and were incubated for another 48 h. CMs were digested with trypsin, and a small amount of cell suspension was added into the same amount of trypan blue solution. Countstar Automated Cell Counter IC1000 (Elite Life Sciences, Shanghai, China) was used to count the number of total and living cells. Data were presented as the mean ± SEM, n ≥ 3.

hiPSC-CMs [3] = format: cell-based, human; conditions: human
Experimental: Cells were incubated in a maintaining medium containing 10 μM DCFH-DA (Beyotime Biotechnology, Shanghai, China) for 30 min at 37 °C in the dark. The measurement of ROS was performed with IncuCyte™ S3 ZOOM cell imaging system (Essen BioScience, Ann Arbor, MI). TissueQuest 6.0 was used for the quantitative analysis of ROS formation. Data were presented as the mean ± SEM, n ≥ 3.

hiPSC-CMs [4] = system: hiPSC-CMs
Experimental: as §1
Cell treatment method was the same as above. After reaching the predetermined time, 120 μl of the supernatant of each well was taken for measuring LDH leakage using a commercially available kit (Beyotime Biotechnology, Shanghai, China) following the manufacturer’s instructions. Data were presented as the mean ± SEM, n ≥ 3.

hiPSC-CMs [5] = assay: SOD, GSH and MDA assay; format: cell-based, human; conditions: 2, 10, 50 μM
Experimental: as §1
Cell treatment was the same as discussed in the “Compound treatment” section. After reaching the predetermined time, the cells were washed with 4 °C physiological saline and later were added into the lysate and appropriately pipetted. After centrifuging at 1.2 × 10^4 rpm for 5 min, the supernatant was obtained to measure the levels of SOD, GSH and MDA using a commercially available kit (Beyotime Biotechnology, Shanghai, China) following the manufacturer's instructions. Data were presented as the mean ± SEM, n ≥ 3.

[6] = 2, 10, 50 μM tested, recorded over 24 h
[7] = at the lowest effective concentration

SMILES	Amplitude (EFP): lowest concentration that demonstrated a significant change compare with the control group (hiPSC-CMs [1]; [6])	Beat rate: lowest concentration that demonstrated a significant change compare with the control group (hiPSC-CMs [1]; [6])	FPD: lowest concentration that demonstrated a significant change compare with the control group (hiPSC-CMs [1]; [6])	Base impedance vs the control group (in words) (hiPSC-CMs [1])	Contractile amplitude (amplitude of IMP) vs the control group (in words) (hiPSC-CMs [1])	FPD value vs the control group (in words) (hiPSC-CMs [1])	Potential amplitude (amplitude of EFP) vs the control group (in words) (hiPSC-CMs [1])	Amplitude (EFP): initial time of significant change compare with the control group (hiPSC-CMs [1]; [7])	Amplitude (IMP): initial time of significant change compare with the control group (hiPSC-CMs [1]; [7])	Cell viability (in words) (hiPSC-CMs [2]; hiPSC-CMs, 24 h)	GSH activity (in words) (hiPSC-CMs [5])	MDA level (in words) (hiPSC-CMs [5])	SOD activity (in words) (hiPSC-CMs [5])	also measured
O=c1cccc2n1C[C@@H]1CNC[C@H]2C1 [Cytisine, cytisine]	50 µM	10 µM	No effect	no change except 50 μM cytisine treatment	upward trend	no significant effect	upward trend	16 h	4 h	decreased dose-dependently	sharply lowered	rose	sharply lowered	Amplitude (IMP): lowest concentration that demonstrated a significant change compare with the control group (hiPSC-CMs [1]; [6]): 10 µM; Base impedance: lowest concentration that demonstrated a significant change compare with the control group (hiPSC-CMs [1]; [6]): 50 µM; Beat rate vs the control group (in words) (hiPSC-CMs [1]; listed as cytisine): slightly lowered; FPD value vs the control group (in words) (hiPSC-CMs [1]; listed as cytisine): remained stable in all groups; Base impedance: initial time of significant change compare with the control group (hiPSC-CMs [1]; [7]): 12 h; [Ca^2+]i: lowest concentration that demonstrated a significant change compare with the control group (GCaMP hESC-CMs): 50 µM; Cell viability: lowest concentration that demonstrated a significant change compare with the control group (hiPSC-CMs [2]; human): 50 µM; ROS level: lowest concentration that demonstrated a significant change compare with the control group (hiPSC-CMs [3]): 50 µM; LDH leakage: lowest concentration that demonstrated a significant change compare with the control group (hiPSC-CMs [4]; human): 2 µM
O=C1CCC[C@@H]2[C@H]3CCC[N+]4([O-])CCC[C@@H](CN12)[C@@H]34 (stereo partly drawn) [Oxymatrine, oxymatrine]	10 µM	10 µM	No effect	no change, except 10 μM oxymatrine treatment	upward dose-dependent trend	remained stable in all groups	upward dose-dependent trend; also recorded: large fluctuation	12 h	4 h	decreased dose-dependently	sharply lowered	rose	sharply lowered	Beat rate vs the control group (in words) (hiPSC-CMs [1]): slightly lower; also recorded: large fluctuation; Beat rate: initial time of significant change compare with the control group (hiPSC-CMs [1]; [7]): 4 h; Cell viability: lowest concentration that demonstrated a significant change compare with the control group (hiPSC-CMs [2]; hiPSC-CMs, 2, 10, 50 μM tested, 24 h): 10 µM; LDH leakage: lowest concentration that demonstrated a significant change compare with the control group (hiPSC-CMs [4]; hiPSC-CMs, 2, 10, 50 μM tested): 2 µM
